Assay results from US10653674B2, “Multisubstituted aromatic compounds as inhibitors of thrombin” (VERSEON CORPORATION, priority 2010, dated 2020).

What was measured:
malignant breast tumors = conditions: cited from earlier work
Human thrombin = biological target: T1, Human thrombin (Homo sapiens, UniProt P00734); assay: Thrombin protease inhibition assay, chromogenic substrate S-2238; type: biochemical; conditions: inhibition of the protease activity of thrombin, Table A
T1 construct: purchased Haematologic Technologies Inc
Experimental: Compounds described herein can be assayed, by a variety of methods known in the art and described herein, for inhibition of biological activity, e.g., protease activity, of a variety of proteins, e.g., thrombin.
The thrombin activity reported herein (e.g., Table A) was obtained as follows. […] Thrombin was assayed in buffer containing 0.05 M Tris (pH 7.4), 0.015 M NaCl and 0.01% PEG-8000. The final concentration of enzyme used was 3 nM thrombin. […] All assays were performed in 96-well microtiter plates at room temperature (RT). […] Inhibitor IC50 values were determined by adding test compound as ten point, three-fold serial dilutions in buffer solution, as known in the art. The plate was read at 10 minutes after substrate addition. The IC50 was calculated by plotting the percent (%) inhibition against compound concentration and fitting the data to a constrained four parameter sigmoidal curve, as known in the art.

CCCCCCOC(=O)NC(=N)c1ccc(NCc2nc3cc(C(=O)N(CCC(=O)OCC)c4ccccn4)ccc3n2C)cc1 [dabigatran etexilate]
reduction in tumor volume (malignant breast tumors; at 4 weeks, treated mice): 50%
weight loss in treated mice (malignant breast tumors; at 4 weeks): no weight loss
reduction of tumor cells in the blood and liver micrometastases (malignant breast tumors; mouse, in vivo): 50-60%

CN(C)C(=O)c1n[nH]c(C(=O)Nc2ccccc2Cl)n1 [Cmpd 186, 5-C-(2-chlorobenzene)-3-N,3-N-dimethyl-1H-1,2,4-triazole-3,5-dicarboxamide]
IC50 (Human thrombin): > 1000 nM

CNC(=O)c1n[nH]c(C(=O)Nc2ccccc2Cl)n1 [Cmpd 187, 5-C-(2-chlorobenzene)-3-N-methyl-1H-1,2,4-triazole-3,5-dicarboxamide]
IC50 (Human thrombin): > 1000 nM

Fc1ccc(CNc2nc(-c3cccnc3)n[nH]2)cc1 [Cmpd 4]
melting point: 185 to 186 °C
